Measurements reported in ChEMBL document CHEMBL1201862, “PubChem BioAssay data set” (2004).
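Results reflect a 48-hour exposure of cells in 96-well plates to compound at five concentrations. At the GI50, growth is halved.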 Calls of active or inactive are those of the source. No stated cut-off is given here; in the data, active = GI50 up to about 1.1 µM and inactive = higher.

Assays:
Test in all cases: NCI-60 cell line screen, 48 h
A549 = test system: A549
EKVX = test system: EKVX
K562 = test system: K562
SNB-75 = test system: SNB-75
M14 = test system: M14
M19-MEL = test system: M19-MEL
SR = test system: SR
HOP-92 = test system: HOP-92
RXF 393 = test system: RXF 393
HL-60 = test system: HL-60
NCI-H460 = test system: NCI-H460
SK-MEL-28 = test system: SK-MEL-28
SK-OV-3 = test system: SK-OV-3
OVCAR-8 = test system: OVCAR-8
LXFL 529 = test system: LXFL 529
SNB-19 = test system: SNB-19
HT-29 = test system: HT-29
IGROV-1 = test system: IGROV-1
DU-145 = test system: DU-145
MCF7 = test system: MCF7

| SMILES | GI50 (A549) | GI50 (EKVX) | GI50 (K562) | GI50 (SNB-75) | GI50 (M14) | GI50 (M19-MEL) | GI50 (SR) | GI50 (HOP-92) | GI50 (RXF 393) | GI50 (HL-60) | GI50 (NCI-H460) | GI50 (SK-MEL-28) | GI50 (SK-OV-3) | GI50 (OVCAR-8) | GI50 (LXFL 529) | GI50 (SNB-19) | GI50 (HT-29) | GI50 (IGROV-1) | GI50 (DU-145) | GI50 (MCF7) |
| --- | --- | --- | --- | --- | --- | --- | --- | --- | --- | --- | --- | --- | --- | --- | --- | --- | --- | --- | --- | --- |
| COc1cc(C=C2C(=O)NC(=O)NC2=O)cc(OC)c1OC | > 100 µM (inactive) | > 100 µM (inactive) | > 100 µM (inactive) | 80.2 µM (inactive) | > 100 µM (inactive) | > 100 µM (inactive) | > 100 µM (inactive) | > 100 µM (inactive) | > 100 µM (inactive) | > 100 µM (inactive) | > 100 µM (inactive) | > 100 µM (inactive) | > 100 µM (inactive) | > 100 µM (inactive) | > 100 µM (inactive) | > 100 µM (inactive) | > 100 µM (inactive) |  |  |  |
| CNC(=O)CN(CC(N)=O)C(N)=O | > 100 µM (inactive) | > 100 µM (inactive) | > 100 µM (inactive) | 77.3 µM (inactive) | > 100 µM (inactive) | > 100 µM (inactive) | > 100 µM (inactive) | > 100 µM (inactive) | > 100 µM (inactive) | > 100 µM (inactive) | > 100 µM (inactive) | > 100 µM (inactive) | > 100 µM (inactive) | > 100 µM (inactive) | > 100 µM (inactive) | > 100 µM (inactive) | > 100 µM (inactive) | > 100 µM (inactive) |  |  |
| C[C@H](O)CCC(=O)c1ccoc1 | > 100 µM (inactive) | > 100 µM (inactive) | > 100 µM (inactive) | > 34.5 µM (inactive) | > 100 µM (inactive) | > 100 µM (inactive) | > 100 µM (inactive) | > 100 µM (inactive) | > 100 µM (inactive) | > 100 µM (inactive) | > 100 µM (inactive) | > 100 µM (inactive) | > 100 µM (inactive) | > 100 µM (inactive) | > 100 µM (inactive) | > 100 µM (inactive) | > 100 µM (inactive) | > 100 µM (inactive) |  |  |
| O=C1C(CN2CCOCC2)CCCC1CN1CCOCC1 (configuration not stated) | 24.1 µM (inactive) | 4.23 µM (inactive) | 0.48 µM (active) | 14 µM (inactive) | 3.44 µM (inactive) | 7.11 µM (inactive) | 5.31 µM (inactive) | 0.92 µM (active) | 1.75 µM (inactive) | 0.787 µM (active) | 24.6 µM (inactive) | 1.95 µM (inactive) | 32.1 µM (inactive) | 3.41 µM (inactive) | 1.53 µM (inactive) | 30.8 µM (inactive) | 1.76 µM (inactive) | 8.79 µM (inactive) | 17.3 µM (inactive) | 0.303 µM (active) |
| NC(=S)N1N=C2c3ccccc3CC[C@@H]2[C@@H]1c1ccccc1 | 8.59 µM (inactive) | 16.3 µM (inactive) | 2 µM (inactive) | 3.62 µM (inactive) | 4.4 µM (inactive) | 4.97 µM (inactive) | 1.47 µM (inactive) | 11.2 µM (inactive) | 4.95 µM (inactive) | 2.86 µM (inactive) | 5.42 µM (inactive) | 9.84 µM (inactive) | 9.73 µM (inactive) | 9.75 µM (inactive) | 8.18 µM (inactive) | 5.77 µM (inactive) | 3.15 µM (inactive) | 12.6 µM (inactive) |  |  |
| CC(C)OCN/C(N)=N\C#N | > 100 µM (inactive) | > 100 µM (inactive) | > 100 µM (inactive) | > 100 µM (inactive) | > 100 µM (inactive) | > 100 µM (inactive) | 10.8 µM (inactive) | > 100 µM (inactive) | 46.1 µM (inactive) | > 100 µM (inactive) | > 100 µM (inactive) | > 100 µM (inactive) | > 100 µM (inactive) | > 100 µM (inactive) | > 100 µM (inactive) | > 100 µM (inactive) | 43.8 µM (inactive) | > 100 µM (inactive) |  |  |
| Nc1n/c(=N\c2ccccc2)ss1 | > 100 µM (inactive) | > 100 µM (inactive) | 78 µM (inactive) | > 100 µM (inactive) | > 100 µM (inactive) | 99.5 µM (inactive) | > 100 µM (inactive) | > 100 µM (inactive) | > 100 µM (inactive) | 19.9 µM (inactive) | > 100 µM (inactive) | > 100 µM (inactive) | > 100 µM (inactive) | > 100 µM (inactive) | > 100 µM (inactive) | > 100 µM (inactive) | > 100 µM (inactive) | > 100 µM (inactive) |  |  |
